Patent US9047503B2, “System and method for automated biological cell assay data analysis” (GE HEALTHCARE UK LIMITED, priority 2010, dated 2015)

Legend:
[1] = test system: mitochondrial membrane potential; type: cell-based
Method: Various examples describing various real-life responses obtained using the mitochondrial marker TMRM will now be given. In actual images of cells stained with TMRM, the level of fluorescence intensity is related to the mitochondrial membrane potential, loss of which can be an indicator of cytotoxicity.
(§1) However, in order to verify further the robustness of the developed methods, these algorithms were tested on FOV-averaged data generated from a real toxicity assay. The cell-based experiment involved the influence of several drugs and the applications of two fluorescent markers during a 5-hour time course. The general background for such an experimental study is outlined in the article by O'Brien et al.
The second example analyzed a mitochondrial marker (TMRM) response. […] It was assumed that all cells started reacting immediately after drug addition. The reaction of a mitochondrial potential to a perturbation (i.e. a drug) is considered to be potentially very diverse.
The expression defined in Equation 16 above is very flexible, and uses as a fitting parameter the single time scale (“τ”), amplitude (“range”) and another parameter (“α”) for controlling response nonlinearity.
The TMRM response was taken for two values of drug concentration, denoted “high” and “low”.
Data fitting was performed using the technique discussed in relation to Equation 16, above. […]

[2] = test system: cytoplasmatic membrane integrity; type: cell-based
Method: as §1
The first example analyzed the cytoplasmatic membrane integrity, as indicated by the TOTO-3 marker. TOTO-3 stains cell nuclei only after cell plasma membrane disruption. The response1(t) generated by disruption to the membrane is therefore a curve representing the increase of cell nuclei intensity in TOTO-3 channel. This intensity was measured by a microscopy HTS system. However, the exact moment when a particular membrane became disrupted was unpredictable.
The analysis therefore used stochastic fitting involving a single time parameter (the width of the box-shaped distribution of starting times of the response).
FIG. 11 represents the raw TOTO-3 response. The TOTO-3 response was taken for two values of drug concentration, denoted “high” and “low”.
Data fitting was performed using a response1(t) function having an exponential rising shape. τ was equal to 15 minutes, A=0.5 and B=1.48. The starting time distribution was box shaped with tmin=0 and widtht−fitted.

SMILES	effect on mitochondrial function (TMRM response) [1]	TOTO-3 response speed (characteristic time) relative to controls [2]
CC[C@H](C)C(=O)O[C@H]1C[C@@H](C)C=C2C=C[C@H](C)[C@H](CC[C@@H]3C[C@@H](O)CC(=O)O3)[C@H]21 [lovastatin]	–	responding faster than controls
CC/C(=C(\c1ccccc1)c1ccc(OCCN(C)C)cc1)c1ccccc1 [tamoxifen]	–	responding faster than controls

Continued, values first:

effect on mitochondrial function (TMRM response) [1]	TOTO-3 response speed (characteristic time) relative to controls [2]	SMILES
no effect	–	Cc1oncc1C(=O)Nc1ccc(C(F)(F)F)cc1 [leflunomide]
no effect	–	O=C1CN(/N=C/c2ccc(-c3ccc([N+](=O)[O-])cc3)o2)C(O)=N1 [dantrolene]
–	responding faster than controls	COc1ccc(CCN2CCC(Nc3nc4ccccc4n3Cc3ccc(F)cc3)CC2)cc1 [astemizole]
